Results published in PubChem BioAssay AID588589 (The Scripps Research Institute Molecular Screening Center, 2011).
Active and inactive are the calls of the source. No rule for the calls is given here.

Test system: Fam108b (ABHD17B) [Mus musculus], recombinant soluble
Test: mouse Fam108b hydrolase inhibitors, soluble construct – biochemical, gel-based ABPP, soluble form, SAR follow-up (AID 588589)
Conditions: fluorophosphonate probe, at 5 µM, active compounds read high

SMILES: COc1ccc(/C=C/c2nc3scc(-c4cccs4)c3c(=O)o2)cc1
- inhibition: 0% (inactive)

SMILES: CCOc1cccc(-c2nc3ccc(OC(C)=O)cc3c(=O)o2)c1
- inhibition: 5% (inactive)

SMILES: O=c1oc(-c2ccc([N+](=O)[O-])cc2)nc2c1cnn2-c1ccccc1
- inhibition: 0% (inactive)

SMILES: Cc1nsc2nc(-c3cccnc3Cl)oc(=O)c12
- inhibition: 5% (inactive)

SMILES: CC(=O)Oc1ccc2nc(-c3ccccc3)oc(=O)c2c1
- inhibition: 0% (inactive)

SMILES: Cc1nsc2nc(-c3ccc([N+](=O)[O-])cc3Cl)oc(=O)c12
- inhibition: 10% (inactive)

SMILES: Cc1ccc(-c2csc3nc(-c4ccc(-c5ccccc5)cc4)oc(=O)c23)cc1
- inhibition: 0% (inactive)

SMILES: CC(C)c1nsc2nc(-c3ccccc3Cl)oc(=O)c12
- inhibition: 0% (inactive)

SMILES: COc1ccc(-c2csc3nc(-c4ccc(F)cc4)oc(=O)c23)cc1
- inhibition: 0% (inactive)

SMILES: O=C1CCC(=O)N1c1ccc(-c2nc3scc(-c4cccs4)c3c(=O)o2)cc1
- inhibition: 0% (inactive)

SMILES: O=c1oc(-c2ccc(Br)cc2)nc2scc(-c3cccs3)c12
- inhibition: 0% (inactive)

SMILES: O=c1oc(-c2ccc(-c3ccccc3)cc2)nc2scc(-c3ccccc3)c12
- inhibition: 0% (inactive)

SMILES: O=c1oc(-c2ccc(C(F)(F)F)cc2)nc2c1oc1ccc(Cl)cc12
- inhibition: 40% (inactive)

SMILES: COc1cc2nc(-c3c(OC)cccc3OC)oc(=O)c2cc1OC
- inhibition: 0% (inactive)

SMILES: CSc1ccc(Cl)c(-c2nc3snc(C)c3c(=O)o2)c1
- inhibition: 10% (inactive)

SMILES: COCc1nsc2nc(-c3ccccc3Cl)oc(=O)c12
- inhibition: 0% (inactive)

SMILES: O=c1oc(-c2cccc(Cl)c2)nc2scc(-c3ccc(Br)cc3)c12
- inhibition: 0% (inactive)

SMILES: O=c1oc(-c2cc3ccccc3o2)nc2ccc(Br)cc12
- inhibition: 0% (inactive)

SMILES: Cc1nsc2nc(-c3cc(S(C)(=O)=O)ccc3Cl)oc(=O)c12
- inhibition: 5% (inactive)

SMILES: Cc1nsc2nc(-c3sc4ccccc4c3Cl)oc(=O)c12
- inhibition: 20% (inactive)

SMILES: O=C1CCC(=O)N1c1ccc(-c2nc3scc(-c4ccccc4)c3c(=O)o2)cc1
- inhibition: 65%

SMILES: Cc1nsc2nc(-c3cc(S(=O)(=O)N4CCCCC4)ccc3Cl)oc(=O)c12
- inhibition: 15% (inactive)

SMILES: Cc1nsc2nc(-c3ccccc3Cl)oc(=O)c12
- inhibition: 0% (inactive)

SMILES: CCCc1nsc2nc(-c3ccccc3Cl)oc(=O)c12
- inhibition: 15% (inactive)

SMILES: Cc1nsc2nc(-c3ccc(Cl)cc3Cl)oc(=O)c12
- inhibition: 20% (inactive)

SMILES: O=c1oc(COc2ccccc2Cl)nc2ccccc12
- inhibition: 10% (inactive)

SMILES: Cc1nsc2nc(-c3cc(F)c(F)cc3Cl)oc(=O)c12
- inhibition: 15% (inactive)

SMILES: O=c1oc(-c2ccccc2)nc2c1oc1ccc(Cl)cc12
- inhibition: 40% (inactive)

SMILES: COc1cc2nc(-c3ccc(C(C)(C)C)cc3)oc(=O)c2cc1OC
- inhibition: 0% (inactive)

SMILES: O=c1oc(-c2cccs2)nc2cc(Cl)ccc12
- inhibition: 40% (inactive)

SMILES: O=c1oc(-c2cccs2)nc2scc(-c3ccccc3)c12
- inhibition: 55% (inactive)

SMILES: O=c1oc(-c2cccs2)nc2c1cnn2-c1ccccc1
- inhibition: 70%

SMILES: Cc1nsc2nc(-c3cc(Br)cnc3Cl)oc(=O)c12
- inhibition: 10% (inactive)

SMILES: O=c1oc(-c2ccccc2Cl)nc2c1cnn2-c1ccccc1
- inhibition: 80%

SMILES: CCOc1ccc(-c2csc3nc(-c4ccccc4C)oc(=O)c23)cc1
- inhibition: 5% (inactive)

SMILES: O=c1oc(-c2ccc(F)cc2)nc2scc(-c3ccc(Br)cc3)c12
- inhibition: 0% (inactive)

SMILES: Cc1nsc2nc(-c3cc(S(=O)(=O)N(C)Cc4ccccc4)ccc3Cl)oc(=O)c12
- inhibition: 30% (inactive)

SMILES: O=c1oc(/C=C/c2ccccc2)nc2scc(-c3cccs3)c12
- inhibition: 10% (inactive)

SMILES: CCOc1cc2nc(-c3ccccc3SC)oc(=O)c2cc1OCC
- inhibition: 5% (inactive)

SMILES: Cc1nsc2nc(-c3cc(Cl)ccc3Cl)oc(=O)c12
- inhibition: 15% (inactive)

SMILES: CC(C)(C)c1nc2scc(-c3ccccc3)c2c(=O)o1
- inhibition: 70%

SMILES: Cc1ccccc1-c1nc2scc(-c3ccc(Br)cc3)c2c(=O)o1
- inhibition: 0% (inactive)

SMILES: COc1cc(-c2nc3scc(-c4ccccc4)c3c(=O)o2)cc(OC)c1OC
- inhibition: 0% (inactive)

SMILES: CCOc1ccc(-c2csc3nc(-c4ccccc4OC)oc(=O)c23)cc1
- inhibition: 35% (inactive)

SMILES: CC(C)(C)c1ccc(-c2nc3scc(-c4cccs4)c3c(=O)o2)cc1
- inhibition: 0% (inactive)

SMILES: Cc1ccc2nc(-c3ccccc3Cl)oc(=O)c2c1
- inhibition: 15% (inactive)

SMILES: CC(C)(C)c1ccc(-c2nc3sc4c(c3c(=O)o2)CCCC4)cc1
- inhibition: 0% (inactive)

SMILES: O=c1oc(-c2cccc(Cl)c2)nc2c1cnn2-c1ccccc1
- inhibition: 20% (inactive)

SMILES: Cc1sc2nc(-c3ccc(-c4ccccc4)cc3)oc(=O)c2c1C
- inhibition: 0% (inactive)

SMILES: Cc1nsc2nc(-c3cc([N+](=O)[O-])ccc3Cl)oc(=O)c12
- inhibition: 15% (inactive)

SMILES: CC(C)(C)c1ccc(-c2nc3scc(-c4ccccc4)c3c(=O)o2)cc1
- inhibition: 0% (inactive)

SMILES: O=c1oc(-c2cccc(F)c2)nc2c1cnn2-c1ccccc1
- inhibition: 70%

SMILES: Cc1ccc(-c2csc3nc(-c4ccc(C(C)(C)C)cc4)oc(=O)c23)cc1
- inhibition: 5% (inactive)

SMILES: Cc1nsc2nc(-c3cc(S(=O)(=O)N(C)C)ccc3Cl)oc(=O)c12
- inhibition: 10% (inactive)

SMILES: Cc1nsc2nc(-c3cc(S(=O)(=O)N4CCCC4)ccc3Cl)oc(=O)c12
- inhibition: 65%

SMILES: O=C1OC(=O)c2cc(-c3nc4ccccc4c(=O)o3)ccc21
- inhibition: 0% (inactive)

SMILES: O=c1oc(-c2ccco2)nc2cccc(F)c12
- inhibition: 5% (inactive)

SMILES: O=c1oc(-c2cccc(Br)c2)nc2scc(-c3ccccc3)c12
- inhibition: 5% (inactive)

SMILES: Cc1nc2c(oc3ccccc32)c(=O)o1
- inhibition: 25% (inactive)

SMILES: Cc1ccc(-c2nc3scc(-c4ccc(Br)cc4)c3c(=O)o2)cc1
- inhibition: 0% (inactive)

SMILES: Cc1nsc2nc(-c3cc4ccccc4nc3Cl)oc(=O)c12
- inhibition: 40% (inactive)

SMILES: O=c1oc(Cc2ccccc2)nc2scc(-c3ccccc3)c12
- inhibition: 45% (inactive)

SMILES: COc1ccc(-c2csc3nc(-c4cccc5ccccc45)oc(=O)c23)cc1OC
- inhibition: 5% (inactive)

SMILES: O=c1oc(-c2ccco2)nc2c1cnn2-c1ccccc1
- inhibition: 50% (inactive)

SMILES: O=C(Nc1cccc(-c2nc3ccccc3c(=O)o2)c1)c1ccccc1
- inhibition: 50% (inactive)

SMILES: COc1ccc(-c2csc3nc(-c4ccc(C)cc4)oc(=O)c23)cc1
- inhibition: 0% (inactive)

SMILES: O=c1oc(-c2ccccc2)nc2c1oc1ccccc12
- inhibition: 35% (inactive)

SMILES: O=c1oc(-c2ccccc2)nc2c1cnn2-c1ccccc1
- inhibition: 70%

SMILES: CCOc1ccc(-c2csc3nc(-c4ccc(F)cc4)oc(=O)c23)cc1
- inhibition: 0% (inactive)

SMILES: O=C1CCC(=O)N1c1ccc(-c2nc3scc(-c4ccc(F)cc4)c3c(=O)o2)cc1
- inhibition: 0% (inactive)

SMILES: S=c1sc(-c2ccccc2Cl)nc2ccccc12
- inhibition: 35% (inactive)

SMILES: O=c1oc(-c2ccccc2F)nc2scc(-c3ccc(Br)cc3)c12
- inhibition: 50% (inactive)

SMILES: COc1ccc(-c2csc3nc(-c4ccccc4Br)oc(=O)c23)cc1
- inhibition: 0% (inactive)

SMILES: COc1cc2nc(-c3ccccc3SC)oc(=O)c2cc1OC
- inhibition: 15% (inactive)

SMILES: COc1ccc(-c2csc3nc(-c4ccc(Cl)cc4)oc(=O)c23)cc1
- inhibition: 0% (inactive)

SMILES: COc1ccc(-c2csc3nc(Cc4ccccc4)oc(=O)c23)cc1OC
- inhibition: 5% (inactive)

SMILES: Cc1noc2nc(-c3ccccc3Cl)oc(=O)c12
- inhibition: 5% (inactive)

SMILES: Cc1ccc(-c2nc3sc(C)c(C)c3c(=O)o2)cc1
- inhibition: 0% (inactive)

SMILES: O=c1oc(-c2ccc(Br)cc2)nc2c1cnn2-c1ccccc1
- inhibition: 0% (inactive)

SMILES: Cc1ccccc1-c1nc2scc(-c3cccs3)c2c(=O)o1
- inhibition: 15% (inactive)

SMILES: O=c1oc(-c2ccccc2F)nc2scc(-c3cccs3)c12
- inhibition: 80%

SMILES: CCN(CC)S(=O)(=O)c1ccc(Cl)c(-c2nc3snc(C)c3c(=O)o2)c1
- inhibition: 0% (inactive)

SMILES: COc1ccc(-c2csc3nc(-c4ccccc4C)oc(=O)c23)cc1
- inhibition: 0% (inactive)

SMILES: O=c1oc(-c2ccccn2)nc2ccccc12
- inhibition: 45% (inactive)

SMILES: Cc1nsc2nc(-c3cc(Cl)nnc3Cl)oc(=O)c12
- inhibition: 10% (inactive)

SMILES: O=c1oc(-c2ccccc2F)nc2c1cnn2-c1ccccc1
- inhibition: 75%

SMILES: Cc1nsc2nc(-c3ccc(F)cc3Cl)oc(=O)c12
- inhibition: 25% (inactive)

SMILES: CCc1nsc2nc(-c3ccccc3Cl)oc(=O)c12
- inhibition: 20% (inactive)

SMILES: O=c1oc(-c2ccc(F)cc2)nc2scc(-c3cccs3)c12
- inhibition: 0% (inactive)

SMILES: O=c1oc(-c2ccccc2Cl)nc2c1oc1ccccc12
- inhibition: 40% (inactive)

SMILES: CCc1nc2sc(-c3ccccc3)c(-c3ccccc3)c2c(=O)o1
- inhibition: 55% (inactive)

SMILES: CCCOc1cccc(-c2nc3cc(OC)c(OC)cc3c(=O)o2)c1
- inhibition: 10% (inactive)
